The assay has as its system muscle progenitors derived from DMD hiPSC. As to the kind of experiment: Myotube assay: total myotube area per well (alpha-actinin staining). The class given is cell-based, human. The following applies: Homo sapiens, Myotube, 72 h, DMD or WT cell source not given; for Emax: efficacy, MA = normalized Myotube Area, 3 days incubation; for EC50: myogenic activity, half-maximal generation of myotubes, 10 points dose-response 1.5 nM to 30 µM, 3 days. A digest of the protocol:
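DMD hiPSC-derived muscle progenitors (NCRM-1 background) plated at 3500 cells/well in K5 medium with 5 µM Y-27632, then exposed to compound at 1.5 nM–30 µM for 3 days at 37°C. Cells fixed on day 7, alpha-actinin-immunostained and total myotube area per well quantified; duplicates averaged, EC50 and normalized myotube area derived.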

Bounds are passed on as bounds.

For the compound `CCOC(=O)Nc1cc(Oc2ccc(NC(=O)Nc3cc(C(C)(C)C)no3)c(SC)c2)ccn1` [(de), ethyl (4-(4-(3-(3-(tert-butyl)isoxazol-5-yl)ureido)-3-(methylthio)phenoxy)pyridin-2-yl)carbamate], the Emax (usually the size of the effect at its maximum, as opposed to the concentration needed) is at least 75% and the 50% effective concentration (EC50) – broadly, the concentration at which the effect is half-maximal – was under 500 nM.
As for `CCOC(=O)Nc1cc(Oc2ccc(NC(=O)Nc3ncc(C(C)(C)C)s3)c(SC)c2)ccn1` [(df), ethyl (4-(4-(3-(5-(tert-butyl)thiazol-2-yl)ureido)-3-(methylthio)phenoxy)pyridin-2-yl)carbamate], the Emax was at least 75% and the EC50 was under 500 nM.
In turn, `CC(C)(C)c1cc(NC(=O)Nc2ccc(Oc3ccnc4c3CCC(=O)N4)c3ccccc23)on1` [(dg), 1-(3-(tert-butyl)isoxazol-5-yl)-3-(4-((7-oxo-5,6,7,8-tetrahydro-1,8-naphthyridin-4-yl)oxy)naphthalen-1-yl)urea] gave an Emax of at least 75% and a 50% effective concentration (EC50) of under 500 nM.
In the case of `CSc1cc(Oc2ccnc3[nH]c(=O)cnc23)ccc1NC(=O)Nc1cc(C(C)(C)C)on1` [(dh), 1-(5-(tert-butyl)isoxazol-3-yl)-3-(2-(methylthio)-4-((3-oxo-3,4-dihydropyrido[2,3-b]pyrazin-8-yl)oxy)phenyl)urea], the Emax is at least 75% and the EC50 fell in the range of 1000 to 5000 nM.
Compound `CCOC(=O)Nc1cc(Oc2ccc(NC(=O)Nc3cc(C(C)(C)C)on3)c(SC)c2)ccn1` [(di), ethyl (4-(4-(3-(5-(tert-butyl)isoxazol-3-yl)ureido)-3-(methylthio)phenoxy)pyridin-2-yl)carbamate] came in with a maximal effect (Emax) of at least 75% and an EC50 of under 500 nM.
Turning to `CC(=O)Nc1cc(Oc2ccc(NC(=O)Nc3cc(C(C)(C)C)nn3-c3ccccc3)c3ccccc23)ccn1` [(dj), N-(4-((4-(3-(3-(tert-butyl)-1-phenyl-1H-pyrazol-5-yl)ureido)naphthalen-1-yl)oxy)pyridin-2-yl)acetamide], the Emax was at least 75% and the EC50 was under 500 nM.
`CSc1cc(Oc2ccncc2)ccc1NC(=O)Nc1cc(C(C)(C)C)nn1-c1ccccc1` [(dk), 1-(3-(tert-butyl)-1-phenyl-1 H-pyrazol-5-yl)-3-(2-(methylthio)-4-(pyridin-4-yloxy)phenyl)urea] came in with an Emax of 25 to 50% and an EC50 of at least 5000 nM.
On the same counts, the results for `CSc1cc(Oc2ccnc(NS(C)(=O)=O)c2)ccc1NC(=O)Nc1cc(C(C)(C)C)no1` [(dl), N-(4-(4-(3-(3-(tert-butyl)isoxazol-5-yl)ureido)-3-(methylthio)phenoxy)pyridin-2-yl)methanesulfonamide] are at least 75% and 1000 to 5000 nM.
On the same counts, the results for `CSc1cc(Oc2ccnc3[nH]c(=O)[nH]c23)ccc1NC(=O)Nc1cc(C(C)(C)C)nn1-c1ccccc1` [(dm), 1-(3-(tert-butyl)-1-phenyl-1H-pyrazol-5-yl)-3-(2-(methylthio)-4-((2-oxo-2,3-dihydro-1H-imidazo[4,5-b]pyridin-7-yl)oxy)phenyl)urea] are at least 75% and 1000 to 5000 nM.
`CSc1cc(NC(=O)Nc2cc(C(C)(C)C)nn2-c2ccccc2)ccc1Oc1ccnc2[nH]c(=O)cnc12` [(dn), 1-(3-(tert-butyl)-1-phenyl-1H-pyrazol-5-yl)-3-(3-(methylthio)-4-((3-oxo-3,4-dihydropyrido[2,3-b]pyrazin-8-yl)oxy)phenyl)urea] displayed an Emax of at least 75% and an EC50 of 500 to 1000 nM.
Take `CSc1cc(Oc2ccnc3[nH]c(=O)ccc23)ccc1NC(=O)Nc1cc(C(C)(C)C)nn1-c1ccccc1` [(do), 1-(3-(tert-butyl)-1-phenyl-1H-pyrazol-5-yl)-3-(2-(methylthio)-4-((7-oxo-7,8-dihydro-1,8-naphthyridin-4-yl)oxy)phenyl)urea]: the Emax is at least 75% and the EC50 is under 500 nM.
`CSc1cc(Oc2ccnc3[nH]c(=O)cnc23)ccc1NC(=O)Nc1cc(C(C)(C)C)nn1-c1ccc(CN(C)C)cc1` [(dp), 1-(3-(tert-butyl)-1-(4-((dimethylamino)methyl)phenyl)-1H-pyrazol-5-yl)-3-(2-(methylthio)-4-((3-oxo-3,4-dihydropyrido[2,3-b]pyrazin-8-yl)oxy)phenyl)urea] gave an Emax of at least 75% and an EC50 of under 500 nM.
The compound `CSc1cc(Oc2ccnc(NC(=O)CO)c2)ccc1NC(=O)Nc1cc(C(C)(C)C)nn1-c1ccccc1` [(dq), N-(4-(4-(3-(3-(tert-butyl)-1-phenyl-1H-pyrazol-5-yl)ureido)-3-(methylthio)phenoxy)pyridin-2-yl)-2-hydroxyacetamide] returned an Emax of at least 75% and an EC50 of 500 to 1000 nM.
As for `O=C(Nc1ccc(Oc2ccnc3[nH]c(=O)cnc23)cc1F)Nc1cc(C2CC2)nn1-c1ccccc1` [(e), 1-(3-cyclopropyl-1-phenyl-1 H-pyrazol-5-yl)-3-(2-fluoro-4-((3-oxo-3,4-dihydropyrido[2,3-b]pyrazin-8-yl)oxy)phenyl)urea], the maximal response (Emax) was 25 to 50% and the EC50 is at least 5000 nM.
The compound `CC1(c2cc(NC(=O)Nc3ccc(Oc4ccnc5[nH]c(=O)cnc45)cc3F)n(-c3ccccc3)n2)COC1` [(f), 1-(2-fluoro-4-((3-oxo-3,4-dihydropyrido[2,3-b]pyrazin-8-yl)oxy)phenyl)-3-(3-(3-methyloxetan-3-yl)-1-phenyl-1 H-pyrazol-5-yl)urea] gave an Emax of 50 to 75% and an EC50 of at least 5000 nM.
On the same counts, the results for `CC(C)Cc1cc(NC(=O)Nc2ccc(Oc3ccnc4[nH]c(=O)cnc34)cc2F)n(-c2ccccc2)n1` [(g), 1-(2-fluoro-4-((3-oxo-3,4-dihydropyrido[2,3-b]pyrazin-8-yl)oxy)phenyl)-3-(3-isobutyl-1-phenyl-1H-pyrazol-5-yl)urea] are at least 75% and 500 to 1000 nM.
On the same counts, the results for `CC(C)(C)c1cc(NC(=O)Nc2ccc(Oc3ccnc4[nH]c(=O)cnc34)cc2F)[nH]n1` [(h), 1-(3-(tert-butyl)-1H-pyrazol-5-yl)-3-(2-fluoro-4-((3-oxo-3,4-dihydropyrido[2,3-b]pyrazin-8-yl)oxy)phenyl)urea] are 25 to 50% and at least 5000 nM.
In the case of `CC(C)(C)c1cc(NC(=O)Nc2ccc(Oc3ccnc4[nH]c(=O)cnc34)cc2F)n(Cc2ccccc2)n1` [(j), 1-(1-benzyl-3-(tert-butyl)-1 H-pyrazol-5-yl)-3-(2-fluoro-4-((3-oxo-3,4-dihydropyrido[2,3-b]pyrazin-8-yl)oxy)phenyl)urea], the Emax is 50 to 75% and the EC50 is 1000 to 5000 nM.
The compound `CC(C)(C)c1cc(NC(=O)Nc2ccc(Oc3ccnc4[nH]c(=O)cnc34)cc2F)n(CCN2CCOCC2)n1` [(k), 1-(3-(tert-butyl)-1-(2-morpholinoethyl)-1 H-pyrazol-5-yl)-3-(2-fluoro-4-((3-oxo-3,4-dihydropyrido[2,3-b]pyrazin-8-yl)oxy)phenyl)urea] yielded an Emax of 50 to 75% and an EC50 of 1000 to 5000 nM.
As to `CC(C)(C)c1cc(NC(=O)Nc2ccc(Oc3ccnc4[nH]c(=O)cnc34)cc2F)n(-c2cccnc2)n1` [(l), 1-(3-(tert-butyl)-1-(pyridin-3-yl)-1 H-pyrazol-5-yl)-3-(2-fluoro-4-((3-oxo-3,4-dihydropyrido[2,3-b]pyrazin-8-yl)oxy)phenyl)urea], the Emax lay within 50 to 75% and the EC50 was 500 to 1000 nM.
`CC(C)(C)c1cc(NC(=O)Nc2ccc(Oc3ccnc4[nH]c(=O)cnc34)cc2F)n(-c2ncccn2)n1` [(m), 1-(3-(tert-butyl)-1-(pyrimidin-2-yl)-1 H-pyrazol-5-yl)-3-(2-fluoro-4-((3-oxo-3,4-dihydropyrido[2,3-b]pyrazin-8-yl)oxy)phenyl)urea] came in with an Emax of 50 to 75% and an EC50 of at least 5000 nM.
As to `CC(C)(C)c1cc(NC(=O)Nc2ccc(Oc3ccnc4[nH]c(=O)cnc34)cc2F)n(-c2ccc3ncccc3c2)n1` [(n), 1-(3-(tert-butyl)-1-(quinolin-6-yl)-1 H-pyrazol-5-yl)-3-(2-fluoro-4-((3-oxo-3,4-dihydropyrido[2,3-b]pyrazin-8-yl)oxy)phenyl)urea], the Emax is at least 75% and the EC50 is under 500 nM.
As to `CC(=O)n1nc(C(C)(C)C)cc1NC(=O)Nc1ccc(Oc2ccnc3[nH]c(=O)cnc23)cc1F` [(o), 1-(1-acetyl-3-(tert-butyl)-1 H-pyrazol-5-yl)-3-(2-fluoro-4-((3-oxo-3,4-dihydropyrido[2,3-b]pyrazin-8-yl)oxy)phenyl)urea], the Emax lay within 25 to 50% and the EC50 was at least 5000 nM.
On the same counts, the results for `CC(C)(C)c1nc(NC(=O)Nc2ccc(Oc3ccnc4[nH]c(=O)cnc34)cc2F)n(-c2ccccc2)n1` [(p), 1-(3-(tert-butyl)-1-phenyl-1 H-1,2,4-triazol-5-yl)-3-(2-fluoro-4-((3-oxo-3,4-dihydropyrido[2,3-b]pyrazin-8-yl)oxy)phenyl)urea] are 25 to 50% and 500 to 1000 nM.
`CC(C)(C)c1nnc(NC(=O)Nc2ccc(Oc3ccnc4[nH]c(=O)cnc34)cc2F)s1` [(r), 1-(5-(tert-butyl)-1,3,4-thiadiazol-2-yl)-3-(2-fluoro-4-((3-oxo-3,4-dihydropyrido[2,3-b]pyrazin-8-yl)oxy)phenyl)urea]: the Emax was at least 75% and the EC50 was at least 5000 nM.
The compound `CC(C)(C)c1cc(NC(=O)Nc2ccc(Oc3ccnc4[nH]c(=O)cnc34)cc2)n(-c2ccccc2)n1` [(s), 1-(3-(tert-butyl)-1-phenyl-1 H-pyrazol-5-yl)-3-(4-((3-oxo-3,4-dihydropyrido[2,3-b]pyrazin-8-yl)oxy)phenyl)urea] registered an Emax of 50 to 75% and an EC50 of 500 to 1000 nM.
On the same counts, the results for `CC(C)(C)c1cc(NC(=O)Nc2ccc(Oc3ccnc4[nH]c(=O)cnc34)nc2)n(-c2ccccc2)n1` [(t), 1-(3-(tert-butyl)-1-phenyl-1 H-pyrazol-5-yl)-3-(6-((3-oxo-3,4-dihydropyrido[2,3-b]pyrazin-8-yl)oxy)pyridin-3-yl)urea] are 25 to 50% and under 500 nM.

The values above are taken from EP4029501A1, “COMBINATION OF POLYAROMATIC UREA DERIVATIVES AND GLUCOCORTICOID OR HDAC INHIBITOR FOR THE TREATMENT OF DISEASES OR CONDITIONS ASSOCIATED WITH MUSCLE CELLS AND/OR SATELLITE CELLS” (Anagenesis Biotechnologies, priority 2021, dated 2022).
